Results from ChEMBL document CHEMBL4229394 (Bioorg Med Chem Lett, 2018).
One block for each compound: values may come before it.

Experiments:
GABA-B receptor = GABA-B receptor (Homo sapiens, UniProt O75899+Q9UBS5); assay: Agonist activity at human GABA-B1/B2 receptor expressed in HEK293/Cre-luc cells assessed as inhibition of forskolin-stimulated cAMP accumulation after 3 hrs by luciferase reporter gene assay; format: cell-based
[1] = target: Sodium-dependent noradrenaline transporter (Homo sapiens) (UniProt P23975); assay: Inhibition of NET (unknown origin) by radio ligand displacement assay relative to control; details: concentration not given here
[2] = target: Beta-1 adrenergic receptor (Homo sapiens) (UniProt P08588); assay: Inhibition of beta-1 adrenergic receptor (unknown origin) by radio ligand displacement assay relative to control; details: concentration not given here
[3] = target: Alpha-1B adrenergic receptor (Homo sapiens) (UniProt P35368); assay: Inhibition of alpha-1B adrenergic receptor (unknown origin) by radio ligand displacement assay relative to control; details: concentration not given here
[4] = target: 5-hydroxytryptamine receptor 1E (Homo sapiens) (UniProt P28566); assay: Inhibition of 5-HT1E receptor (unknown origin) by radio ligand displacement assay relative to control; details: concentration not given here
[5] = target: Mu-type opioid receptor (Homo sapiens) (UniProt P35372); assay: Inhibition of MOR (unknown origin) by radio ligand displacement assay relative to control; details: concentration not given here
[6] = target: 5-hydroxytryptamine receptor 1A (Homo sapiens) (UniProt P08908); assay: Inhibition of 5-HT1A receptor (unknown origin) by radio ligand displacement assay relative to control; details: concentration not given here
[7] = target: Alpha-2A adrenergic receptor (Homo sapiens) (UniProt P08913); assay: Inhibition of alpha-2A adrenergic receptor (unknown origin) by radio ligand displacement assay relative to control; details: concentration not given here
[8] = target: Beta-3 adrenergic receptor (Homo sapiens) (UniProt P13945); assay: Inhibition of beta-3 adrenergic receptor (unknown origin) by radio ligand displacement assay relative to control; details: concentration not given here
[9] = target: Muscarinic acetylcholine receptor M2 (Homo sapiens) (UniProt P08172); assay: Inhibition of M2 receptor (unknown origin) by radio ligand displacement assay relative to control; details: concentration not given here
[10] = target: Histamine H1 receptor (Homo sapiens) (UniProt P35367); assay: Inhibition of H1 receptor (unknown origin) by radio ligand displacement assay relative to control; details: concentration not given here
[11] = target: 5-hydroxytryptamine receptor 1B (Homo sapiens) (UniProt P28222); assay: Inhibition of 5-HT1B receptor (unknown origin) by radio ligand displacement assay relative to control; details: concentration not given here
[12] = target: D(1B) dopamine receptor (Homo sapiens) (UniProt P21918); assay: Inhibition of D5 receptor (unknown origin) by radio ligand displacement assay relative to control; details: concentration not given here
[13] = target: D(1A) dopamine receptor (Homo sapiens) (UniProt P21728); assay: Inhibition of D1 receptor (unknown origin) by radio ligand displacement assay relative to control; details: concentration not given here
[14] = target: 5-hydroxytryptamine receptor 2C (Homo sapiens) (UniProt P28335); assay: Inhibition of 5-HT2C receptor (unknown origin) by radio ligand displacement assay relative to control; details: concentration not given here
[15] = target: 5-hydroxytryptamine receptor 2B (Homo sapiens) (UniProt P41595); assay: Inhibition of 5-HT2B receptor (unknown origin) by radio ligand displacement assay relative to control; details: concentration not given here
[16] = target: Sodium-dependent dopamine transporter (Homo sapiens) (UniProt Q01959); assay: Inhibition of DAT (unknown origin) by radio ligand displacement assay relative to control; details: concentration not given here
[17] = target: Alpha-1D adrenergic receptor (Homo sapiens) (UniProt P25100); assay: Inhibition of alpha-1D adrenergic receptor (unknown origin) by radio ligand displacement assay relative to control; details: concentration not given here
[18] = target: Beta-2 adrenergic receptor (Homo sapiens) (UniProt P07550); assay: Inhibition of beta-2 adrenergic receptor (unknown origin) by radio ligand displacement assay relative to control; details: concentration not given here
[19] = target: Muscarinic acetylcholine receptor M4 (Homo sapiens) (UniProt P08173); assay: Inhibition of M4 receptor (unknown origin) by radio ligand displacement assay relative to control; details: concentration not given here
[20] = target: D(2) dopamine receptor (Homo sapiens) (UniProt P14416); assay: Inhibition of D2 receptor (unknown origin) by radio ligand displacement assay relative to control; details: concentration not given here
[21] = target: 5-hydroxytryptamine receptor 6 (Homo sapiens) (UniProt P50406); assay: Inhibition of 5-HT6 receptor (unknown origin) by radio ligand displacement assay relative to control; details: concentration not given here
[22] = target: D(4) dopamine receptor (Homo sapiens) (UniProt P21917); assay: Inhibition of D4 receptor (unknown origin) by radio ligand displacement assay relative to control; details: concentration not given here
[23] = target: Sigma intracellular receptor 2 (Rattus norvegicus) (UniProt Q5U3Y7); assay: Inhibition of rat sigma-2 receptor by radio ligand displacement assay relative to control; details: concentration not given here
[24] = target: Sigma non-opioid intracellular receptor 1 (Rattus norvegicus) (UniProt Q9R0C9); assay: Inhibition of rat sigma-1 receptor by radio ligand displacement assay relative to control; details: concentration not given here
[25] = target: Alpha-1A adrenergic receptor (Homo sapiens) (UniProt P35348); assay: Inhibition of alpha-1A adrenergic receptor (unknown origin) by radio ligand displacement assay relative to control; details: concentration not given here
[26] = target: Sodium-dependent serotonin transporter (Homo sapiens) (UniProt P31645); assay: Inhibition of SERT (unknown origin) by radio ligand displacement assay relative to control; details: concentration not given here
[27] = target: GABA-A receptor; alpha-1/beta-2/gamma-2 (Rattus norvegicus, UniProt P18508+P62813+P63138); assay: Agonist activity at rat GFP-fused GABA-A alpha1/beta2/gamma2 receptor expressed in human tsA201 cells at -60 mV holding potential by whole-cell voltage clamp method; format: cell-based
[28] = target: 5-hydroxytryptamine receptor 1D (Homo sapiens) (UniProt P28221); assay: Inhibition of 5-HT1D receptor (unknown origin) by radio ligand displacement assay relative to control; details: concentration not given here
[29] = target: Muscarinic acetylcholine receptor M5 (Homo sapiens) (UniProt P08912); assay: Inhibition of M5 receptor (unknown origin) by radio ligand displacement assay relative to control; details: concentration not given here
[30] = target: Kappa-type opioid receptor (Homo sapiens) (UniProt P41145); assay: Inhibition of KOR (unknown origin) by radio ligand displacement assay relative to control; details: concentration not given here
[31] = target: Histamine H4 receptor (Homo sapiens) (UniProt Q9H3N8); assay: Inhibition of H4 receptor (unknown origin) by radio ligand displacement assay relative to control; details: concentration not given here
[32] = target: 5-hydroxytryptamine receptor 7 (Homo sapiens) (UniProt P34969); assay: Inhibition of 5-HT7 receptor (unknown origin) by radio ligand displacement assay relative to control; details: concentration not given here
[33] = target: 5-hydroxytryptamine receptor 5A (Homo sapiens) (UniProt P47898); assay: Inhibition of 5-HT5A receptor (unknown origin) by radio ligand displacement assay relative to control; details: concentration not given here
[34] = target: 5-hydroxytryptamine receptor 3A (Homo sapiens) (UniProt P46098); assay: Inhibition of 5-HT3 receptor (unknown origin) by radio ligand displacement assay relative to control; details: concentration not given here
[35] = target: D(3) dopamine receptor (Homo sapiens) (UniProt P35462); assay: Inhibition of D3 receptor (unknown origin) by radio ligand displacement assay relative to control; details: concentration not given here
[36] = target: Histamine H3 receptor (Homo sapiens) (UniProt Q9Y5N1); assay: Inhibition of H3 receptor (unknown origin) by radio ligand displacement assay relative to control; details: concentration not given here
[37] = target: Histamine H2 receptor (Homo sapiens) (UniProt P25021); assay: Inhibition of H2 receptor (unknown origin) by radio ligand displacement assay relative to control; details: concentration not given here
[38] = target: 5-hydroxytryptamine receptor 2A (Homo sapiens) (UniProt P28223); assay: Inhibition of 5-HT2A receptor (unknown origin) by radio ligand displacement assay relative to control; details: concentration not given here
[39] = target: Muscarinic acetylcholine receptor M3 (Homo sapiens) (UniProt P20309); assay: Inhibition of M3 receptor (unknown origin) by radio ligand displacement assay relative to control; details: concentration not given here
[40] = target: Muscarinic acetylcholine receptor M1 (Homo sapiens) (UniProt P11229); assay: Inhibition of M1 receptor (unknown origin) by radio ligand displacement assay relative to control; details: concentration not given here
[41] = target: Delta-type opioid receptor (Homo sapiens) (UniProt P41143); assay: Inhibition of DOR (unknown origin) by radio ligand displacement assay relative to control; details: concentration not given here
HEK293 = assay: Cytotoxicity against HEK293 cells co-expressing human GABA-B1/B2 receptor and Cre-luc plasmid at 50 to 100 uM after 3 hrs by CellTiter 96 aqueous one solution reagent based assay; format: cell-based; details: hek293, 3 h

GABA-B receptor, sequence (Q9UBS5 whole entry): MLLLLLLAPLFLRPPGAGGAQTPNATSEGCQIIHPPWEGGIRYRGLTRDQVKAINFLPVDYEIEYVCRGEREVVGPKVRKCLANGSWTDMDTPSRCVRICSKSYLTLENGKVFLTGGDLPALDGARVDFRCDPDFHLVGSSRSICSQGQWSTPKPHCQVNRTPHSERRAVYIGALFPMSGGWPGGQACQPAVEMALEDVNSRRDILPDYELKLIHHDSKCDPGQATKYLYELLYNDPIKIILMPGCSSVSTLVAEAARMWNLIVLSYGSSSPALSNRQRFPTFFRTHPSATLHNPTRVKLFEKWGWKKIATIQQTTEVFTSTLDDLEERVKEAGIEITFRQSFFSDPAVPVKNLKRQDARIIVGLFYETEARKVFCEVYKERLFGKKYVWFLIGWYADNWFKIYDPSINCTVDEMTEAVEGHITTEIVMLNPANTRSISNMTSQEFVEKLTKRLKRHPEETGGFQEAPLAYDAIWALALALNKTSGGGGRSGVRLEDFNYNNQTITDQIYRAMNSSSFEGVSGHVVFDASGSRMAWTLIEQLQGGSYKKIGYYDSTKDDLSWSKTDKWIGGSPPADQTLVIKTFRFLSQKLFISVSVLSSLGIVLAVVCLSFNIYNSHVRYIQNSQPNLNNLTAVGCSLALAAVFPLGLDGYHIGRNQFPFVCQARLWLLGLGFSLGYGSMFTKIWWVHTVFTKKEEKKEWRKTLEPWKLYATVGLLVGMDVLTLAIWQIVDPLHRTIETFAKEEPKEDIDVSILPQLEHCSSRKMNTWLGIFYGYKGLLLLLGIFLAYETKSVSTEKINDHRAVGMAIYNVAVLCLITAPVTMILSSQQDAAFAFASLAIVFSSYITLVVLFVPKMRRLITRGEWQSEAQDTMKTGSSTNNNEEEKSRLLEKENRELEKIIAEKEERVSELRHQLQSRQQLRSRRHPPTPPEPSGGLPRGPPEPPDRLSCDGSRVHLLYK
GABA-B receptor, sequence (O75899 whole entry): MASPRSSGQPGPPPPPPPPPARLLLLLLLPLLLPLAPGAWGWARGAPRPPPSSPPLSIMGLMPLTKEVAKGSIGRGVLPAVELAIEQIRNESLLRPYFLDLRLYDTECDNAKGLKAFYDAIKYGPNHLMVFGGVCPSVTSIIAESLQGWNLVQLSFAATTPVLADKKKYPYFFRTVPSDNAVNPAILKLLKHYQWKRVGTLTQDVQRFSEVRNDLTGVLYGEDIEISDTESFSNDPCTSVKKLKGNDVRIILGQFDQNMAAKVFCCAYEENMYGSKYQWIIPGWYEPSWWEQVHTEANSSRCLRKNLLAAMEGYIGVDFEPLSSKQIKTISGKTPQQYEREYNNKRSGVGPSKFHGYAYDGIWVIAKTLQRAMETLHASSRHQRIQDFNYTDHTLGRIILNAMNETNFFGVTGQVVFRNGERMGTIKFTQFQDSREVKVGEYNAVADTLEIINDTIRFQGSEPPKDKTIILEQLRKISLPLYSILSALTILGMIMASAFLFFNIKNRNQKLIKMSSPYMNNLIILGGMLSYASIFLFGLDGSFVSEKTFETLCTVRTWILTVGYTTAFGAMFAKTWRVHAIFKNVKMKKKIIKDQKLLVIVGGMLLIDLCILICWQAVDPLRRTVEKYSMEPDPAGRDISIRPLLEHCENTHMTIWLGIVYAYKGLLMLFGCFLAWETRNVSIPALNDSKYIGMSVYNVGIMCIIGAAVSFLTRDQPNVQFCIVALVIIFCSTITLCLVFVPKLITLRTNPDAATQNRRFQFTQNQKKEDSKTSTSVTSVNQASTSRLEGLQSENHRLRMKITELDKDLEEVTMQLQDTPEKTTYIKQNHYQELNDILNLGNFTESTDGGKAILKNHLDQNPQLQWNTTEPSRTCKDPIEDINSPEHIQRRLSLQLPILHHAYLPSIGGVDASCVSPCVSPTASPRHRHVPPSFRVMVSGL
GABA-A receptor; alpha-1/beta-2/gamma-2, sequence (P18508 whole entry, the tested form may be a part): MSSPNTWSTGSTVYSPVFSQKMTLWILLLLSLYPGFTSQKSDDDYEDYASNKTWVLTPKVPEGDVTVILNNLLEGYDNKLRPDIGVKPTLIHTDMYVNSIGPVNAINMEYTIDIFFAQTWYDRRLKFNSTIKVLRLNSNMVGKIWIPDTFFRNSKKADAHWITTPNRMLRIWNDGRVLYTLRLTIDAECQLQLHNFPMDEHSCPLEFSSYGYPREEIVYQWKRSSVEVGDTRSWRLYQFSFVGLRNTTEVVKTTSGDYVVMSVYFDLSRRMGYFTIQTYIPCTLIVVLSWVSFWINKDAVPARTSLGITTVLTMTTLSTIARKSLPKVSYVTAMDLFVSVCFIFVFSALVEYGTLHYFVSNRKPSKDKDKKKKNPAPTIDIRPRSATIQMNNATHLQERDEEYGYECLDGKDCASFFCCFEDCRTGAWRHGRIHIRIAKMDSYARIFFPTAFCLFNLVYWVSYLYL
GABA-A receptor; alpha-1/beta-2/gamma-2, sequence (P62813 whole entry, the tested form may be a part): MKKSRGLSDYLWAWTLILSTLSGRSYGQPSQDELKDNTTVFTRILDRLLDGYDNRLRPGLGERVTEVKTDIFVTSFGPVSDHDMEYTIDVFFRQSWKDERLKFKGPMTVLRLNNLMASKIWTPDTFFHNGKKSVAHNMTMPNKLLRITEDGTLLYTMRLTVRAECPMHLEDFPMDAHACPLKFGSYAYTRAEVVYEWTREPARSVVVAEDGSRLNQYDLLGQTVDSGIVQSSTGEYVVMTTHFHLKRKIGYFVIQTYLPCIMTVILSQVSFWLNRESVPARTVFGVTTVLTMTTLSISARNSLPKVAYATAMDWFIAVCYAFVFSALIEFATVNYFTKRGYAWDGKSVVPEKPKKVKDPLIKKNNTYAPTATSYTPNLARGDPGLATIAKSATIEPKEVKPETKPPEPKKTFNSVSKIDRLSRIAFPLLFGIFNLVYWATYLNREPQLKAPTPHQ
GABA-A receptor; alpha-1/beta-2/gamma-2, sequence (P63138 whole entry, the tested form may be a part): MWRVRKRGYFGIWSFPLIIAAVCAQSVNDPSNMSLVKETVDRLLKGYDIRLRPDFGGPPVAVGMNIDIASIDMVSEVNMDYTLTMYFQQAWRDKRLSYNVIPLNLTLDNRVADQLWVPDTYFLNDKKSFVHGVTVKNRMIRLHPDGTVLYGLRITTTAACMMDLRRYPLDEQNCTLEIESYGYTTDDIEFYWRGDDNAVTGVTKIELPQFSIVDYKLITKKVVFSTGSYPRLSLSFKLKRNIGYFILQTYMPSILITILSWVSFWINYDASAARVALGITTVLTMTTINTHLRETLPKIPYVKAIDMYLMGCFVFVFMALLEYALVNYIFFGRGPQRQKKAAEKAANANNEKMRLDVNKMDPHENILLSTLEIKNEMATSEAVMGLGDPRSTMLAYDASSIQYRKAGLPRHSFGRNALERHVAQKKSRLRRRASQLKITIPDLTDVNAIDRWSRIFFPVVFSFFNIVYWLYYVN
Sigma non-opioid intracellular receptor 1 (Rattus norvegicus), sequence (Q9R0C9 whole entry): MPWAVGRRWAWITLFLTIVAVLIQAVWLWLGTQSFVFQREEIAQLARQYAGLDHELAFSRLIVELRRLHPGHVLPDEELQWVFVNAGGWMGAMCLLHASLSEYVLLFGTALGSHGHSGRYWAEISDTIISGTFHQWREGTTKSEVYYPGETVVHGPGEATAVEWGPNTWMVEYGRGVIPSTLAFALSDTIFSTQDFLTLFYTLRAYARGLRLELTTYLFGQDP
5-hydroxytryptamine receptor 5A (Homo sapiens), sequence (P47898 whole entry): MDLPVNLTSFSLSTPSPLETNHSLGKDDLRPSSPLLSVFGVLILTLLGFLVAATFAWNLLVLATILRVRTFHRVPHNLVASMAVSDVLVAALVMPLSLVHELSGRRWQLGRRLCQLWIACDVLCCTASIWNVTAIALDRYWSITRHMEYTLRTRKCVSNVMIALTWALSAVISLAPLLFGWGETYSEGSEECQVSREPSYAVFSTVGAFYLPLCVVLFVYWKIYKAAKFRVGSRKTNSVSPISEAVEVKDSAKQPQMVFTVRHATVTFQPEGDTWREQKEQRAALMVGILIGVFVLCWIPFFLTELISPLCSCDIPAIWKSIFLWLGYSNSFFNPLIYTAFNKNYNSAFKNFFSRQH
Beta-2 adrenergic receptor (Homo sapiens), sequence (P07550 whole entry, looked up): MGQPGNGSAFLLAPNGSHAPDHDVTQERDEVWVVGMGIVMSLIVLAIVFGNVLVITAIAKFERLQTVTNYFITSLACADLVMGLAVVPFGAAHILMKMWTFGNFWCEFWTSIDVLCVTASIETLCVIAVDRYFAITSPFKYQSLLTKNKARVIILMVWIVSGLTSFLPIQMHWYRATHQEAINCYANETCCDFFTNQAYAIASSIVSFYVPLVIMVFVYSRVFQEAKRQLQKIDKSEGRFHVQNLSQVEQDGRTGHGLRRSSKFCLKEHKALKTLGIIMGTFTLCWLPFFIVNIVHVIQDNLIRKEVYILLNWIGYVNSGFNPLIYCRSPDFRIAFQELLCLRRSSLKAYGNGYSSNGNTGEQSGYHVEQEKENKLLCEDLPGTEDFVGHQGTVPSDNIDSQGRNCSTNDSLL
D(4) dopamine receptor (Homo sapiens), sequence (P21917 whole entry): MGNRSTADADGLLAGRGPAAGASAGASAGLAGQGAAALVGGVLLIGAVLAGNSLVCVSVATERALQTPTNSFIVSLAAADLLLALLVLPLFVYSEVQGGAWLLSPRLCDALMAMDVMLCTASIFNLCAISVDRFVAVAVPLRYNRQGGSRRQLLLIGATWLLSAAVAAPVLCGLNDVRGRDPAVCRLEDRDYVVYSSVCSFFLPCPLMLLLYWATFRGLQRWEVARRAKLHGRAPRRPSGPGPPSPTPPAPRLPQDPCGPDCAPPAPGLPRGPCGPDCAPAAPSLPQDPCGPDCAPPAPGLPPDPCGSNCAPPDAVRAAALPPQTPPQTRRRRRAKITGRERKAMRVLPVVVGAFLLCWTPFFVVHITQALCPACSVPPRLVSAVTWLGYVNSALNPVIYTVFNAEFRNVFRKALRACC
Sigma intracellular receptor 2 (Rattus norvegicus), sequence (Q5U3Y7 whole entry): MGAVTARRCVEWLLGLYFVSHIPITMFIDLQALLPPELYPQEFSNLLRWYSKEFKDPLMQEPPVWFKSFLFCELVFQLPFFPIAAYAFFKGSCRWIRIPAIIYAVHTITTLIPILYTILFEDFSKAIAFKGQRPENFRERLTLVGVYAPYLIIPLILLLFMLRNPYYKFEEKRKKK

SMILES: O=C(C12CC3CC(CC(C3)C1)C2)C(F)(F)C(O)/C=C/c1ccccc1 (stereo unspecified)
EC50 [27]: > 100 µM

SMILES: O=C(C12CC3CC(CC(C3)C1)C2)C(F)(F)C(O)c1ccc(Cl)cc1 (stereo unspecified)
Activity (HEK293): Toxic
EC50 (GABA-B receptor): > 100 µM

SMILES: O=C(C12CC3CC(CC(C3)C1)C2)C(F)(F)C(O)c1ccccc1 (stereo unspecified)
Activity (HEK293): Toxic
EC50 (GABA-B receptor): > 100 µM

SMILES: CC(=O)c1ccc(C(O)C(F)(F)C(=O)C23CC4CC(CC(C4)C2)C3)cc1 (stereo unspecified)
inhibition [1]: < 30%
inhibition [2]: < 30%
inhibition [3]: < 30%
inhibition [4]: < 30%
inhibition [5]: < 30%
inhibition [6]: < 30%
inhibition [7]: < 30%
inhibition [8]: < 30%
inhibition [9]: < 30%
inhibition [10]: < 30%
inhibition [11]: < 30%
inhibition [12]: < 30%
inhibition [13]: < 30%
inhibition [14]: < 30%
inhibition [15]: < 30%
inhibition [16]: < 30%
inhibition [17]: < 30%
inhibition [18]: < 30%
inhibition [19]: < 30%
inhibition [20]: < 30%
inhibition [21]: < 30%
inhibition [22]: < 30%
inhibition [23]: < 30%
inhibition [24]: < 30%
inhibition [25]: < 30%
inhibition [26]: < 30%
inhibition [28]: < 30%
inhibition [29]: < 30%
inhibition [30]: < 30%
inhibition [31]: < 30%
inhibition [32]: < 30%
inhibition [33]: < 30%
inhibition [34]: < 30%
inhibition [35]: < 30%
inhibition [36]: < 30%
inhibition [37]: < 30%
inhibition [38]: < 30%
inhibition [39]: < 30%
inhibition [40]: < 30%
inhibition [41]: < 30%

SMILES: CCc1ccc(C(O)C(F)(F)C(=O)C23CC4CC(CC(C4)C2)C3)cc1 (stereo unspecified)
Activity (HEK293): Toxic
EC50 (GABA-B receptor): > 100 µM

SMILES: O=C1c2ccccc2C(=O)N1CC(O)C(F)(F)C(=O)C12CC3CC(CC(C3)C1)C2 (stereo unspecified)
EC50 (GABA-B receptor): > 100 µM

Further lines, results first:

EC50 (GABA-B receptor): > 100 µM
SMILES: CC(C)CC(=O)C(F)(F)C(NC(=O)OC(C)(C)C)c1ccccc1 (stereo unspecified)

inhibition [1]: < 30%
inhibition [2]: < 30%
inhibition [3]: < 30%
inhibition [4]: < 30%
inhibition [5]: < 30%
inhibition [6]: < 30%
inhibition [7]: < 30%
inhibition [8]: < 30%
inhibition [9]: < 30%
inhibition [10]: < 30%
inhibition [11]: < 30%
inhibition [12]: < 30%
inhibition [13]: < 30%
inhibition [14]: < 30%
inhibition [15]: < 30%
inhibition [16]: < 30%
inhibition [17]: < 30%
inhibition [18]: < 30%
inhibition [19]: < 30%
inhibition [20]: < 30%
inhibition [21]: < 30%
inhibition [22]: < 30%
inhibition [23]: < 30%
inhibition [24]: < 30%
inhibition [25]: < 30%
inhibition [26]: < 30%
EC50 [27]: > 100 µM
EC50 (GABA-B receptor): 19.4 µM
inhibition [28]: < 30%
inhibition [29]: < 30%
inhibition [30]: < 30%
inhibition [31]: < 30%
inhibition [32]: < 30%
inhibition [33]: < 30%
inhibition [34]: < 30%
inhibition [35]: < 30%
inhibition [36]: < 30%
inhibition [37]: < 30%
inhibition [38]: < 30%
inhibition [39]: < 30%
inhibition [40]: < 30%
inhibition [41]: < 30%
SMILES: CC(C)(C)OC(=O)NC(c1ccccc1)C(F)(F)C(=O)c1ccc2ccccc2c1 (stereo unspecified)

EC50 (GABA-B receptor): > 100 µM
SMILES: CC(C)(C)OC(=O)NC(c1ccccc1)C(F)(F)C(=O)c1ccc2c(c1)OCO2 (stereo unspecified)

EC50 (GABA-B receptor): > 100 µM
SMILES: O=C(C12CC3CC(CC(C3)C1)C2)C(F)(F)C(NS(=O)(=O)c1ccccc1)c1ccccc1 (stereo unspecified)

EC50 (GABA-B receptor): > 100 µM
SMILES: CC(=O)c1ccc(C(O)C(F)(F)C(=O)c2ccccn2)cc1 (stereo unspecified)

EC50 (GABA-B receptor): > 100 µM
SMILES: C/C=C/C=C/C(NCc1ccccc1)C(F)(F)C(=O)c1ccc2ccccc2c1 (stereo unspecified)

EC50 [27]: > 100 µM
EC50 (GABA-B receptor): 91 µM
SMILES: O=C(c1ccc2ccccc2c1)C(F)(F)C(NCc1ccccc1)c1ccccc1 (stereo unspecified)

EC50 [27]: > 100 µM
EC50 (GABA-B receptor): 57.4 µM
SMILES: O=C(c1ccc(Cl)cc1)C(F)(F)C(NCc1ccccc1)c1ccccc1 (stereo unspecified)

EC50 [27]: > 100 µM
EC50 (GABA-B receptor): 32.7 µM
SMILES: O=C(c1ccc2ccccc2c1)C(F)(F)C(NS(=O)(=O)c1ccccc1)c1ccccc1 (stereo unspecified)
